Experimental data reported in US20090022739A1, “MODULATING THE KV1.1 VOLTAGE-GATED POTASSIUM CHANNEL IN T-CELLS FOR REGULATING THE […] AND SECRETION OF TUMOR NECROSIS FACTOR ALPHA (tnf-ALPHA) AND TREATING HUMAN DISEASE OR INJURIES MEDIATED BY […] HIGH OR LOW LEVELS OF TNF-ALPHA” (priority 2005, published 2009).

Assays:
TNF-α mRNA = test: RT-PCR for TNF-α mRNA in normal human T-cells; format: cell-based; conditions: 100 nM DTX-K for 24 hr; normalized to S14; FIG. 3A
Method: RT-PCR for TNF-α and Kv1.1: Total RNA was prepared according to Tri-Reagent protocol (MRC, Cincinnati, Ohio). First-strand cDNA was synthesized by Reverse Transcription System (Promega, Madison, Wis.). RT-PCR was conducted in a 50 μl reaction mixture containing 50 ng cDNA, 5 μl of X10 Optibuffer (Bioline, London, UK), 3 μl of 50 mM MgCl2, 2.5 μl of 10 mM dNTP mix (Promega), 4U of Bio-X-act DNA Polymerase (Bioline). For TNF-α/S14 parallel amplification, 2 μl of each TNF-α primer (10 pmol/μl) and 0.25 μl of each S14 primer (10 pmol/μl) were used. For Kv1.1/S14 parallel amplification, 5 μl of each Kv1.1 primer (100 pmol/μl) and 2.5 μl of each S14 primer (10 pmol/μl) were used. […]; Conditions for TNF-α PCR were: 94° C. for 1 minute, 63° C. for 40 seconds and 72° C. for 40 seconds (29 cycles). Conditions for Kv1.1 PCR were: 94° C. for 3 minutes (one cycle); 94° C. for 1 minute, 60/57/54/51/48° C. for 2 minutes and 72° C. for 3 minutes (three cycles each); 94° C. for 1 minute, 50° C. for 2 minutes and 72° C. for 3 minutes (25 cycles). […]
The question of whether selective block of Kv1.1 subunit containing channels in T-cells elevates not only the levels of the TNF-α protein, but also TNF-α mRNA was studied next. […] Bars at the bottom represent fold increase TNF-α mRNA calculated following densitometric analysis and normalization of the corresponding RT-PCR bands of TNF-α/S14. […]

NF-κB = test: EMSA for nuclear NF-κB in normal human T-cells; format: cell-based; conditions: 100 nM DTX-K
Method: EMSA for Nuclear NF-κB: Nuclear fractions from freshly-isolated normal human T-cells were collected using Nuclear Extract Kit (Active Motif, Carlsbad, Calif.), according to the manufacturer's instructions. NF-κB levels in nuclear fractions were measured using TransAM NF-κB Family Kit (Active Motif), according to the manufacturer's instructions.
In case of the TNF-α gene, the observed importance of NF-κB for the expression of the TNFα gene may depend on the cell type and the segment of the enhancer/promoter analyzed (Siebenlist et al, 1990). On these grounds, we investigated whether block of Kv1.1 channels in normal human T-cells (once again, in the complete absence of any other stimuli) can affect NF-κB. […]
Nuclear extracts were […] for several time periods, of which only 7 min is shown. The results, expressed as OD±SD, reflect the amount of NF-κB bound to nuclear NF-κB-binding sequences, as determined by commercially available EMSA. […]

NF-κB p50 = test: Immunofluorescent histochemistry for NF-κB p50 nuclear translocation; format: cell-based, human; conditions: 100 nM DTX-K; 7 minutes; FIG. 3C
Method: Immunofluorescent Histochemistry for NF-κB: Freshly-isolated normal human T-cells that were pretreated or not with DTX-K (100 nM for 7, 15, 30 and 60 minutes), were pelleted (1200 g, 10 minutes, […]), suspended in PBS at 1×10^6 cells/ml, centrifuged (1200 g, 10 minutes), fixed on glass slide by cytospin (250 μl/slide, 1500 rpm, 5 minutes; Shandon Elliot, London, UK), permeablized (200 μl/slide of a solution containing 100 ml 95% methanol and 3 ml acetic acid glacial), and incubated in a blocking medium (200 μl/slide) containing 10% normal goat serum, 2% BSA, 1% glycine and 0.5% triton X-100. The cells were then stained with a rabbit anti-human NF-κB p50 polyclonal Ab (80 μl of 1:50 dilution for 30 minutes at room temperature; Santa Cruz Biotechnology, Santa Cruz, Calif.). […]
In case of the TNF-α gene, the observed importance of NF-κB for the expression of the TNFα gene may depend on the cell type and the segment of the enhancer/promoter analyzed (Siebenlist et al, 1990). […]
In the experiment the results of which are shown in FIG. 3C, normal human T-cells were either left untreated or treated with 100 nM DTX-K for 7, 15, 30 and 60 minutes (see DTX-K treatment time above each respective column). […] Representative photographs at ×100 magnification are shown for NF-κB p50 green fluorescence (upper panel), nuclei blue fluorescence (middle panel), and overlay of both (lower panel). […]

human T-cells = conditions: data not shown
Kv1.1 = Kv1.1 (Homo sapiens, UniProt Q09470); conditions: Gutman et al, 2003; cited from earlier work
Kv1.1, sequence (Q09470 whole entry): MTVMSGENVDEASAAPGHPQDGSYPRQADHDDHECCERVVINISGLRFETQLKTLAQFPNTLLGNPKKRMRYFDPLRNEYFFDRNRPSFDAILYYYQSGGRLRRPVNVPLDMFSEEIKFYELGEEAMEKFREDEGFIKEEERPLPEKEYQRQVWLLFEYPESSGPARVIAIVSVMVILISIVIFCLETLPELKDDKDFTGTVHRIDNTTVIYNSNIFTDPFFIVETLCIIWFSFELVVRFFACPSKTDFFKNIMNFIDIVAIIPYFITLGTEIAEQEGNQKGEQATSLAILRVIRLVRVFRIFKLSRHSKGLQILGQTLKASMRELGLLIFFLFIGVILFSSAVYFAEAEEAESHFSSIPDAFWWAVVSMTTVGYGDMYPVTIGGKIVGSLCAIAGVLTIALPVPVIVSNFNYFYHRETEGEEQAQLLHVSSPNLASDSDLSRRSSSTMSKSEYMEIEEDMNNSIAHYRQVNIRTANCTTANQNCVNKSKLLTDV

With “Dendrotoxin-K (AAKYCKLPLRIGPCKRKIPSFYYKWKAKQCLPFDYSGCGGNANRFKTIEECRRTCVG) [DTX-K]” the “TNFα mRNA levels” value (TNF-α mRNA) was “augmented”, the “level of NF-κB present in the nuclear extracts” value (NF-κB; 7 minutes, FIG. 3B) was “significantly augmented” and the “elevation of nuclear NF-κB at later time points” value (NF-κB; several later time points, data not shown) was “no longer detected”. For the same substance, the “NF-κB p50 staining of the cell nucleus” value (NF-κB p50) was “clearly positive for NF-κB p50”, the “effect on cell survival or proliferation” value (human T-cells) was “no significant effect” and the Ki (Kv1.1) was 0.016 nM.
